Reference: ChEMBL document CHEMBL4130506, “Design, synthesis and biological evaluation of N-(4-alkoxy-3-cyanophenyl)isonicotinamide/nicotinamide derivatives as novel xanthine oxidase inhibitors” (Eur J Med Chem, 2017)

Tests used:
[1] = target: T1, Xanthine dehydrogenase/oxidase (Bos taurus, UniProt P80457); assay: Inhibition of bovine xanthine oxidase assessed as reduction in uric acid formation using xanthine as substrate preincubated for 10 mins followed by substrate addition by UV spectrophotometric method
T1 sequence (P80457 whole entry): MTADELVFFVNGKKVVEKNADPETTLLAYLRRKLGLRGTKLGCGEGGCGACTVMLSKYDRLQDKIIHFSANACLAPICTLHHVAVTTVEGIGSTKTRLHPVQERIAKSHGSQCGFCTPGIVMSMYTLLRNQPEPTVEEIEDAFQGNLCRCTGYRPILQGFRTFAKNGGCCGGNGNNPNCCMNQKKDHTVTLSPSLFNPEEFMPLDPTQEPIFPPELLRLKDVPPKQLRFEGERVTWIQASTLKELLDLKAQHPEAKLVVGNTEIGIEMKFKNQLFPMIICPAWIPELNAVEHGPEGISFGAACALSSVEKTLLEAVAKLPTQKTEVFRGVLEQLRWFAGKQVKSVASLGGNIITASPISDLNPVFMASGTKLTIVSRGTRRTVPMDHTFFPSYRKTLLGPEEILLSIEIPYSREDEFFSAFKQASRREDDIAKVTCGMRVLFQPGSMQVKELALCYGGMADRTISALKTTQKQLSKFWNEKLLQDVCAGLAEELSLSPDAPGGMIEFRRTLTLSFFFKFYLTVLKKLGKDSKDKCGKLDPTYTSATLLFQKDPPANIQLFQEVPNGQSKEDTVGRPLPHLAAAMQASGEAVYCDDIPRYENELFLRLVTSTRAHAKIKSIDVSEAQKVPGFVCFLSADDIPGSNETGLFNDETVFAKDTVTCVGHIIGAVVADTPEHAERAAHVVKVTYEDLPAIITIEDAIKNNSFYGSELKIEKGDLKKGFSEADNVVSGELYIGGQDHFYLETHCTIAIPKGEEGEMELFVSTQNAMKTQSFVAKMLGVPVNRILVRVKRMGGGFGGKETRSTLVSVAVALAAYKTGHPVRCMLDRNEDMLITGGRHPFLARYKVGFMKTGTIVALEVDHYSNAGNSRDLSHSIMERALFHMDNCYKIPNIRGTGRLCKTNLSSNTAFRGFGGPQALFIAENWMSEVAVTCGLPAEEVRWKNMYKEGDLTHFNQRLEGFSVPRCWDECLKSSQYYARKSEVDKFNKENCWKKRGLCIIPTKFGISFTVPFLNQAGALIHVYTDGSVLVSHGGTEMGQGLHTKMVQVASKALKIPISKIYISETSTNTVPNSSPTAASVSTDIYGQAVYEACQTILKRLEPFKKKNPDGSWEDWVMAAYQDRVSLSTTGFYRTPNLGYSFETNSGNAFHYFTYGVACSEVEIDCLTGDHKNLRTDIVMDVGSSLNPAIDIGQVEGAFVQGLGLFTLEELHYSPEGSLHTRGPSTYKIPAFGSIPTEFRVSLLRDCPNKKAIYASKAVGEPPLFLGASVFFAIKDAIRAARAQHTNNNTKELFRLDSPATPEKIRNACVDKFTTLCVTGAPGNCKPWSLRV

[2] = target: T1, Xanthine dehydrogenase/oxidase; assay: Inhibition of bovine xanthine oxidase assessed as reduction in uric acid formation at 50 uM using xanthine as substrate preincubated for 10 mins followed by substrate addition by UV spectrophotometric method; conditions: cattle
[3] = target: T1, Xanthine dehydrogenase/oxidase; assay: Mixed inhibition of bovine xanthine oxidase assessed as reduction in uric acid formation up to 0.6 uM using xanthine as substrate preincubated for 10 mins followed by substrate addition by Lineweaver-Burk plot analysis; conditions: cattle
[4] = target: T1, Xanthine dehydrogenase/oxidase; assay: Potency index, ratio of allopurinol IC50 to test compound IC50 for bovine xanthine oxidase; conditions: cattle

Row | Structure (SMILES) | IC50 [1] [nM] | inhibition at 50 µM [2] [%] | other results
1 | CCCCOc1ccc(NC(=O)c2ccncc2)cc1C#N | 2300 |  | 
2 | CCCCCCCOc1ccc(NC(=O)c2cccnc2)cc1C#N |  | < 60 | 
3 | N#Cc1cc(NC(=O)c2cccnc2)ccc1OC1CCCC1 |  | < 60 | 
4 | CC(C)CCOc1ccc(NC(=O)c2ccccn2)cc1C#N |  | < 60 | 
5 | N#Cc1ccc(COc2ccc(NC(=O)c3cccnc3)cc2C#N)cc1 |  | < 60 | 
6 | N#Cc1cc(NC(=O)c2cccnc2)ccc1OCc1ccccc1 | 32800 |  | 
7 | CC(C)COc1ccc(NC(=O)c2ccccn2)cc1C#N |  | < 60 | 
8 | N#Cc1cc(NC(=O)c2ccccn2)ccc1OCc1ccc(Cl)cc1 |  | < 60 | 
9 | CCCCCCOc1ccc(NC(=O)c2ccncc2)cc1C#N | 2700 |  | 
10 | N#Cc1cc(NC(=O)c2ccncc2)ccc1OC1CCCC1 | 5700 |  | 
11 | CC(C)COc1ccc(NC(=O)c2cccnc2)cc1C#N |  | < 60 | 
12 | N#Cc1cc(NC(=O)c2ccccn2)ccc1OCc1ccccc1 | 22600 |  | 
13 | CCCCOc1ccc(NC(=O)c2ccccn2)cc1C#N |  | < 60 | 
14 | COCCOc1ccc(NC(=O)c2cccnc2)cc1C#N |  | < 60 | 
15 | CC(C)CCOc1ccc(NC(=O)c2ccncc2)cc1C#N | 2000 |  | 
16 | N#Cc1ccccc1COc1ccc(NC(=O)c2ccncc2)cc1C#N | 300 |  | inhibition (INH) [3]: Active; Ratio IC50 [4]: 28.3
17 | CCCCOc1ccc(NC(=O)c2cccnc2)cc1C#N |  | < 60 | 
18 | CCC(C)Oc1ccc(NC(=O)c2cccnc2)cc1C#N (centres undefined) |  | < 60 | 
19 | N#Cc1cc(NC(=O)c2ccncc2)ccc1OCc1ccccc1 | 900 |  | 
20 | CCCOc1ccc(NC(=O)c2ccncc2)cc1C#N | 3900 |  | 
21 | CC(C)Oc1ccc(NC(=O)c2ccncc2)cc1C#N | 9500 |  | 

Row | Structure (SMILES) | IC50 [1] [nM] | inhibition at 50 µM [2] [%] | other results
22 | CC(C)CCOc1ccc(NC(=O)c2cccnc2)cc1C#N | 35000 |  | 
23 | N#Cc1cccc(COc2ccc(NC(=O)c3ccncc3)cc2C#N)c1 | 2000 |  | 
24 | COc1ccc(COc2ccc(NC(=O)c3ccncc3)cc2C#N)cc1 | 600 |  | 
25 | CCCCCCCOc1ccc(NC(=O)c2ccncc2)cc1C#N | 5000 |  | 
26 | CCCCCCCCOc1ccc(NC(=O)c2cccnc2)cc1C#N |  | < 60 | 
27 | CCCCCCCCOc1ccc(NC(=O)c2ccncc2)cc1C#N | 19200 |  | 
28 | CC(C)Oc1ccc(NC(=O)c2cccnc2)cc1C#N |  | < 60 | 
29 | CC(C)COc1ccc(NC(=O)c2ccncc2)cc1C#N | 1600 |  | Ratio IC50 [4]: 5.3
30 | N#Cc1cc(-c2n[nH]c(-c3ccncc3)n2)ccn1 [TOPIROXOSTAT] | 15 |  | 
31 | CCCCCOc1ccc(NC(=O)c2ccncc2)cc1C#N | 3000 |  | 
32 | N#Cc1ccc(COc2ccc(NC(=O)c3ccncc3)cc2C#N)cc1 | 2300 |  | 
33 | COc1ccccc1COc1ccc(NC(=O)c2ccncc2)cc1C#N | 1800 |  | 
34 | CCCCCCOc1ccc(NC(=O)c2cccnc2)cc1C#N |  | < 60 | 
35 | CCCCCOc1ccc(NC(=O)c2cccnc2)cc1C#N |  | < 60 | 
36 | CCC(C)Oc1ccc(NC(=O)c2ccncc2)cc1C#N (centres undefined) | 6100 |  | 
37 | CCCOc1ccc(NC(=O)c2cccnc2)cc1C#N |  | < 60 | 
38 | COCCOc1ccc(NC(=O)c2ccncc2)cc1C#N |  | < 60 | 
39 | N#Cc1cc(NC(=O)c2ccncc2)ccc1OCc1ccc(Cl)cc1 | 800 |  | 
40 | N#Cc1cc(NC(=O)c2ccccc2)ccc1OCc1ccccc1 |  | < 60 | 
41 | N#Cc1cc(NC(=O)c2cccnc2)ccc1OCc1ccc(Cl)cc1 |  | < 60 | 
